According to patent publication US20090060851A1, “USE OF IDEBENONE FOR THE PREPARATION OF A TOPICALLY-APPLIED DEPIGMENTATION COMPOSITION AND CORRESPONDING COMPOSITION” (priority 2005, published 2009):

Columns and labels:
SK-MEL-28 = test: Melanin content determination (OD400) in SK-MEL cells; assay type: cell-based, human
Method: In vitro determinations were performed following the method devised by Dooley et al. (Skin Pharmacol. 1994; 7:188-200) in order to evaluate the capacity of idebenone to inhibit melanogenesis, according to the process described below:
Cells: The study was carried out using a cell line derived from human melanoma, provided by ABAC (Asociación Banco Argentino de Células—Cell Bank of Argentina), with melanin synthesis capability (SK-MEL-28, ATCC origin). The cells were grown in plastic culture bottles or in 24-well plastic dishes in a modified Eagle medium (DMEM) supplemented with 10% fetal bovine serum (FBS) and were maintained at 37° C. in a 5% CO2 atmosphere.
Study of in vitro compounds: SK-MEL cells detached with trypsin were seeded on plastic 24-well dishes (density of 1×10^5 cells per well) and incubated for 24 hours in modified Eagle medium (DMEM) supplemented with 10% fetal bovine serum (FBS) prior to treating with the compound to be evaluated. After 24 hours have lapsed, the medium was replaced with 990 μl of fresh medium. 10 μl of sterile vehicle (50% propylene glycol, 30% ethanol and 20% distilled water) containing different concentrations of the compounds to be evaluated were added to this fresh medium.
Decimal dilutions of each compound in the sterile vehicle were prepared in order to obtain final concentrations of the compound to be studied ranging between 1.000 and 0.01 μg/ml. […]
[…] The cells were thus continuously exposed to the compounds under study for the 5 days the culture lasted. All the concentrations of the compounds were studied in triplicate, comparing the mean of the 3 wells treated with the compounds with those treated with the vehicle alone.
Melanin content determination: The SK-MEL cell melanin content was determined after stirring the culture medium and washing the cells with PBS. The cells were then lysated by means of adding 1 ml of 1N NaOH to each well and repeated manual pipetting. The raw cell extract was analyzed using a spectrophotometer at 400 and 475 nm to determine the melanin and dopaquinone content, respectively. The results were expressed as a percentage of the cell cultures treated with the vehicle.

skin of nude adult mice = test: Dermal capillary vessel diameters, mouse skin; assay type: in vivo; settings: topically applied
Method: Creams containing 5% and 2.5% w/w idebenone (IDB) in a neutral phase were prepared. Said creams and a cream having an identical formulation but without idebenone were applied on nude adult mice with 3 months of age. The cream with idebenone was applied on the right half of the body of the animals and the control cream on the left half according to the scheme detailed below. The animals were sacrificed 1, 2, 3 or 4 hours after applying the cream (p.a.). • Batch A: animal treated with 5% IDB (1 hour p.a.) • Batch B: animal treated with 2.5% IDB (1 hour p.a.) • Batch C: animal treated with 5% IDB (2 hours p.a.) • Batch D: animal treated with 2.5% IDB (2 hours p.a.) • Batch E: animal treated with 5% IDB (3 hours p.a.) • Batch F: animal treated with 2.5% IDB (3 hours p.a.) • Batch G: animal treated with 5% IDB (4 hours p.a.) • Batch H: animal treated with 2.5% IDB (4 hours p.a.)
Morphological and morphometric studies: Thickness of the epidermis, the horny layer, the papillary dermis and reticular dermis was measured in at least 10 different points, the result being expressed as the average of the 10 measurements. Capillary vessel diameter was also measured in at least 10 points, expressing them by means of their average. The measurements were carried out using a Quantimet 500+ (Leica) image processing equipment. […]

[1] = Example 9 (similar to Example 6), dilution −2
[2] = Example 9 (similar to Example 6), dilution −3
[3] = Example 9 (similar to Example 6), dilution −4
[4] = Example 9 (similar to Example 6), dilution −5
[5] = Example 9 (similar to Example 6), dilution −6
[6] = Example 9 (similar to Example 6), dilution −7
[7] = Example 9 (similar to Example 6), dilution −8
[8] = dilution −1, treated daily 3 days, assayed day 5
[9] = dilution −2, treated 1 day, evaluated third day
[10] = dilution −2, treated daily 3 days, assayed day 5
[11] = dilution −3, treated 1 day, evaluated third day
[12] = dilution −3, treated daily 3 days, assayed day 5
[13] = dilution −4, treated 1 day, evaluated third day
[14] = dilution −4, treated 2 days, evaluated fourth day
[15] = dilution −4, treated daily 3 days, assayed day 5
[16] = dilution −5, treated 1 day, evaluated third day
[17] = dilution −5, treated 2 days, evaluated fourth day
[18] = dilution −5, treated daily 3 days, assayed day 5
[19] = dilution −6, treated 1 day, evaluated third day
[20] = dilution −6, treated 2 days, evaluated fourth day

With `COC1=C(OC)C(=O)C(CCCCCCCCCCO)=C(C)C1=O` [idebenone, 6-(10-hydroxydecyl)-2,3-dimethoxy-5-methyl-1,4-benzoquinone] the “OD400 (melanin)” value (SK-MEL-28; [1]) was 0.01166, the “OD400 Percentage (melanin)” value (SK-MEL-28; [1]) was 71.40% and the “OD400 (melanin)” value (SK-MEL-28; [2]) was 0.01566. The “OD400 Percentage (melanin)” value (SK-MEL-28; [2]) was 95.89%, the “OD400 (melanin)” value (SK-MEL-28; [3]) was 0.01533 and the “OD400 Percentage (melanin)” value (SK-MEL-28; [3]) was 93.87%. The “OD400 (melanin)” value (SK-MEL-28; [4]) was 0.01466, the “OD400 Percentage (melanin)” value (SK-MEL-28; [4]) was 89.77% and the “OD400 (melanin)” value (SK-MEL-28; [5]) was 0.009. For the same compound, the “OD400 Percentage (melanin)” value (SK-MEL-28; [5]) was 55.11%, the “OD400 (melanin)” value (SK-MEL-28; [6]) was 0.01166 and the “OD400 Percentage (melanin)” value (SK-MEL-28; [6]) was 71.40%. For the same compound, the “OD400 (melanin)” value (SK-MEL-28; [7]) was 0.01166, the “OD400 Percentage (melanin)” value (SK-MEL-28; [7]) was 71.40% and the Melanin synthesis inhibition (SK-MEL-28; SK-MEL-28, Example 5) was “inhibits melanin synthesis in a dose-dependent manner”. For the same compound, the “OD400 (melanin)” value (SK-MEL-28; [8]) was 0.0156, the “OD400 expressed as percentage of control (melanin)” value (“OD400 expressed as percentage” for short) (SK-MEL-28; [8]) was 28% and the “OD400 (melanin)” value (SK-MEL-28; [9]) was 0.0040. The “OD400 Percentage (melanin)” value (SK-MEL-28; [9]) was 14.65%, the “OD400 (melanin)” value (SK-MEL-28; [10]) was 0.0140 and the “OD400 expressed as percentage” value (SK-MEL-28; [10]) was 40%. For the same compound, the “OD400 (melanin)” value (SK-MEL-28; [11]) was 0.0133, the “OD400 Percentage (melanin)” value (SK-MEL-28; [11]) was 48.72% and the “OD400 (melanin)” value (SK-MEL-28; [12]) was 0.0123. The “OD400 expressed as percentage” value (SK-MEL-28; [12]) was 52%, the “OD400 (melanin)” value (SK-MEL-28; [13]) was 0.0243 and the “OD400 Percentage (melanin)” value (SK-MEL-28; [13]) was 89.01%. The “OD400 (melanin)” value (SK-MEL-28; [14]) was 0.0613, the “OD400 Percentage (melanin)” value (SK-MEL-28; [14]) was 112.89% and the “OD400 (melanin)” value (SK-MEL-28; [15]) was 0.0096. For the same compound, the “OD400 expressed as percentage” value (SK-MEL-28; [15]) was 59%, the “OD400 (melanin)” value (SK-MEL-28; dilution −4, treated for 3 days, evaluated fifth day) was 0.0686 and the “OD400 Percentage (melanin)” value (SK-MEL-28; dilution −4, treated for 5 days (heading: 3 days), evaluated fifth day) was 77.69%. For the same compound, the “OD400 (melanin)” value (SK-MEL-28; [16]) was 0.0343, the “OD400 Percentage (melanin)” value (SK-MEL-28; [16]) was 125.64% and the “OD400 (melanin)” value (SK-MEL-28; [17]) was 0.0626. The “OD400 Percentage (melanin)” value (SK-MEL-28; [17]) was 115.28%, the “OD400 (melanin)” value (SK-MEL-28; [18]) was 0.0066 and the “OD400 expressed as percentage” value (SK-MEL-28; [18]) was 66%. The “OD400 (melanin)” value (SK-MEL-28; dilution −5, treated for 3 days, evaluated fifth day) was 0.0742, the “OD400 Percentage (melanin)” value (SK-MEL-28; dilution −5, treated for 5 days (heading: 3 days), evaluated fifth day) was 84.03% and the “OD400 (melanin)” value (SK-MEL-28; [19]) was 0.0313. For the same compound, the “OD400 Percentage (melanin)” value (SK-MEL-28; [19]) was 114.65%, the “OD400 (melanin)” value (SK-MEL-28; [20]) was 0.0396 and the “OD400 Percentage (melanin)” value (SK-MEL-28; [20]) was 72.92%. For the same compound, the “OD400 (melanin)” value (SK-MEL-28; dilution −6, treated for 3 days, evaluated fifth day) was 0.0801, the “OD400 Percentage (melanin)” value (SK-MEL-28; dilution −6, treated for 5 days (heading: 3 days), evaluated fifth day) was 90.71% and the “Melanogenesis inhibition at high dilutions” value (SK-MEL-28; −2 to −8 dilutions) was “preserves its ability to inhibit melanogenesis”. The “Effect on microcirculation vascular diameters” value (skin of nude adult mice) was “does not substantially modify microcirculation vascular diameters”.
